Results published in patent US20170326125A1, “MULTISUBSTITUTED AROMATIC COMPOUNDS AS INHIBITORS OF THROMBIN” (VERSEON CORPORATION, priority 2016, published 2017).

The molecules below were run against T1, Human thrombin (Homo sapiens, UniProt P00734) (assay: Inhibition of the protease activity of thrombin (chromogenic substrate S-2238)). Conditions: Table C; 3 nM thrombin, 125 μM S-2238, 10 min pre-incubation, RT.
T1 construct: purchased Haematologic Technologies Inc
Assay type: biochemical

SMILES	IC50 [µM]
CC(C)CC(=O)n1nc(-c2cccnc2)nc1NCc1ccccc1 [Cmpd 350, 1-[5-(benzylamino)-3-(pyridin-3-yl)-1H-1,2,4-triazol-1-yl]-3-methylbutan-1-one]	< 0.1
COC(=O)c1n[nH]c(NC(=O)c2cccc(C)c2)n1 [Cmpd 382, methyl 5-[(3-methylbenzene)amido]-1H-1,2,4-triazole-3-carboxylate]	> 1
O=C(c1ccccc1Cl)n1nc(-c2cccs2)nc1NCc1ccccc1 [Cmpd 409, N-benzyl-1-[(2-chlorophenyl)carbonyl]-3-(thiophen-2-yl)-1H-1,2,4-triazol-5-amine]	< 0.1
O=C(CCc1ccccc1)n1nc(-c2ccco2)nc1NCc1ccccc1 [Cmpd 347, 1-[5-(benzylamino)-3-(furan-2-yl)-1H-1,2,4-triazol-1-yl]-3-phenylpropan-1-one]	< 0.1
Nc1nc(-c2cccnc2)n[nH]1 [Cmpd 1, 3-(pyridin-3-yl)-1H-1,2,4-triazol-5-amine]	> 1
COC(=O)c1n[nH]c(NC(=O)c2ccccc2C)n1 [Cmpd 380, methyl 5-[(2-methylbenzene)amido]-1H-1,2,4-triazole-3-carboxylate]	> 1
CCC(=O)n1nc(-c2cccnc2)nc1NCc1ccco1 [Cmpd 364, 1-5-[(furan-2-ylmethyl)amino]-3-(pyridin-3-yl)-1H-1,2,4-triazol-1-ylpropan-1-one]	0.1 to 1
CC(=O)Nc1n[nH]c(NCc2ccccc2)n1 [Cmpd 406, N-[5-(benzylamino)-1H-1,2,4-triazol-3-yl]acetamide]	> 1
COc1ccc(CNc2nc(-c3cccnc3)nn2C(=O)C(C)C)cc1 [Cmpd 318, 1-(5-[(4-methoxyphenyl)methyl]amino-3-(pyridin-3-yl)-1H-1,2,4-triazol-1-yl)-2-methylpropan-1-one]	< 0.1
COc1ccccc1C(=O)n1nc(-c2ccccc2)nc1N [Cmpd 334, 1-[(2-methoxyphenyl)carbonyl]-3-phenyl-1H-1,2,4-triazol-5-amine]	> 1
CCC(=O)n1nc(-c2cccnc2)nc1NCc1ccc(Cl)cc1 [Cmpd 308, 1-(5-[(4-chlorophenyl)methyl]amino-3-(pyridin-3-yl)-1H-1,2,4-triazol-1-yl)propan-1-one]	< 0.1
O=S(=O)(c1ccc(Cl)cc1)n1nc(-c2cccnc2)nc1NCc1cccs1 [Cmpd 336, 1-[(4-chlorobenzene)sulfonyl]-3-(pyridin-3-yl)-N-(thiophen-2-ylmethyl)-1H-1,2,4-triazol-5-amine]	> 1

Same assay, conditions: inhibition of the protease activity of thrombin

SMILES	IC50 [µM]
O=C(c1ccsc1)n1nc(-c2cccs2)nc1NCc1ccccc1 [Cmpd 291, N-benzyl-3-(thiophen-2-yl)-1-[(thiophen-3-yl)carbonyl]-1H-1,2,4-triazol-5-amine]	0.1 to 1
O=C(c1ccsc1)n1nc(-c2ccccn2)nc1NCc1ccccc1 [Cmpd 283, N-benzyl-3-(pyridin-2-yl)-1-[(thiophen-3-yl)carbonyl]-1H-1,2,4-triazol-5-amine]	< 0.1
COc1ccccc1C(=O)n1nc(-c2ccncc2)nc1NCc1ccc(F)cc1 [Cmpd 207, N-[(4-fluorophenyl)methyl]-1-[(2-methoxyphenyl)carbonyl]-3-(pyridin-4-yl)-1H-1,2,4-triazol-5-amine]	< 0.1
O=C(c1ccoc1)n1nc(-c2cccnc2)nc1NCc1ccc(F)cc1 [Cmpd 213, N-[(4-fluorophenyl)methyl]-1-[(furan-3-yl)carbonyl]-3-(pyridin-3-yl)-1H-1,2,4-triazol-5-amine]	< 0.1
O=C(c1ccco1)n1nc(-c2ccncc2)nc1NCc1ccc(F)cc1 [Cmpd 211, N-[(4-fluorophenyl)methyl]-1-[(furan-2-yl)carbonyl]-3-(pyridin-4-yl)-1H-1,2,4-triazol-5-amine]	< 0.1
c1ccc(CNc2nc(-c3cccnc3)n[nH]2)cc1 [Cmpd 287, N-benzyl-3-(pyridin-3-yl)-1H-1,2,4-triazol-5-amine]	> 1
COc1ccc(CNc2nc(-c3ccccn3)nn2C(=O)c2ccsc2)cc1 [Cmpd 227, N-[(4-methoxyphenyl)methyl]-3-(pyridin-2-yl)-1-[(thiophen-3-yl)carbonyl]-1H-1,2,4-triazol-5-amine]	0.1 to 1
O=C(c1ccccc1Cl)n1nc(-c2ccncc2)nc1NCc1ccccc1 [Cmpd 245, N-benzyl-1-[(2-chlorophenyl)carbonyl]-3-(pyridin-4-yl)-1H-1,2,4-triazol-5-amine]	< 0.1
COc1ccccc1C(=O)n1nc(-c2ccccc2)cc1NCc1ccc(F)cc1 [Cmpd 208, N-[(4-fluorophenyl)methyl]-1-[(2-methoxyphenyl)carbonyl]-3-phenyl-1H-pyrazol-5-amine]	> 1
Fc1ccc(CNc2nc(-c3ccccn3)n(CCc3ccccc3)n2)cc1 [Cmpd 204, N-[(4-fluorophenyl)methyl]-1-(2-phenylethyl)-5-(pyridin-2-yl)-1H-1,2,4-triazol-3-amine]	> 1
O=C(c1ccoc1)n1nc(-c2ccccn2)nc1NCc1ccccc1 [Cmpd 267, N-benzyl-1-[(furan-3-yl)carbonyl]-3-(pyridin-2-yl)-1H-1,2,4-triazol-5-amine]	< 0.1
CN(C)c1ccccc1C(=O)n1nc(-c2ccccn2)nc1NCc1ccccc1 [Cmpd 273, N-benzyl-1-[2-(dimethylamino)phenyl]carbonyl-3-(pyridin-2-yl)-1H-1,2,4-triazol-5-amine]	> 1
COc1ccc(C(=O)n2nc(-c3ccccn3)nc2NCc2ccccc2)cc1 [Cmpd 265, N-benzyl-1-[(4-methoxyphenyl)carbonyl]-3-(pyridin-2-yl)-1H-1,2,4-triazol-5-amine]	< 0.1
O=C(c1ccsc1)n1nc(-c2ccncc2)nc1NCc1ccccc1 [Cmpd 289, N-benzyl-3-(pyridin-4-yl)-1-[(thiophen-3-yl)carbonyl]-1H-1,2,4-triazol-5-amine]	< 0.1
O=C(c1cccc2ccccc12)n1nc(-c2ccccn2)nc1NCc1ccccc1 [Cmpd 269, N-benzyl-1-[(naphthalen-1-yl)carbonyl]-3-(pyridin-2-yl)-1H-1,2,4-triazol-5-amine]	< 0.1
c1ccc(CNc2nc(-c3ccco3)n[nH]2)cc1 [Cmpd 281, N-benzyl-3-(furan-2-yl)-1H-1,2,4-triazol-5-amine]	> 1
COc1ccc(C(=O)n2nc(-c3ccccn3)nc2NCc2ccccc2)c(C)c1 [Cmpd 264, N-benzyl-1-[(4-methoxy-2-methylphenyl)carbonyl]-3-(pyridin-2-yl)-1H-1,2,4-triazol-5-amine]	< 0.1
O=C(c1ccc2ccccc2c1)n1nc(-c2ccccn2)nc1NCc1ccccc1 [Cmpd 271, N-benzyl-1-[(naphthalen-2-yl)carbonyl]-3-(pyridin-2-yl)-1H-1,2,4-triazol-5-amine]	0.1 to 1

Same assay, conditions: inhibition of the protease activity of thrombin; class symbols a/b/c

SMILES	IC50 [µM]
CC(C)CC(=O)n1nc(-c2ccncc2)nc1NCc1ccccc1 [Cmpd 148, 1-[5-(benzylamino)-3-(pyridin-4-yl)-1H-1,2,4-triazol-1-yl]-3-methylbutan-1-one]	< 0.1
CCOC(=O)c1cc(-c2ccccn2)nn1CCc1ccc(F)cc1 [Cmpd 51]	> 1
CN(C(=O)c1cc(-c2ccccn2)nn1CCc1ccc(F)cc1)c1ccccc1 [Cmpd 130, 1-[2-(4-fluorophenyl)ethyl]-N-methyl-N-phenyl-3-(pyridin-2-yl)-1H-pyrazole-5-carboxamide]	> 1
O=C(Cc1ccccc1)n1nc(-c2ccncc2)nc1NCc1ccc(F)cc1 [Cmpd 77, 1-(5-[(4-fluorophenyl)methyl]amino-3-(pyridin-4-yl)-1H-1,2,4-triazol-1-yl)-2-phenylethan-1-one]	< 0.1
COc1ccc(CNc2nc(-c3ccncc3)nn2C(=O)CC(C)C)cc1 [Cmpd 97, 1-(5-[(4-methoxyphenyl)methyl]amino-3-(pyridin-4-yl)-1H-1,2,4-triazol-1-yl)-3-methylbutan-1-one]	< 0.1
O=C(Cc1ccccc1)n1nc(-c2ccncc2)nc1NCc1ccccc1 [Cmpd 147, 1-[5-(benzylamino)-3-(pyridin-4-yl)-1H-1,2,4-triazol-1-yl]-2-phenylethan-1-one]	< 0.1
CCCC(=O)n1nc(-c2ccncc2)nc1NCc1ccc(OC)cc1 [Cmpd 99, 1-(5-[(4-methoxyphenyl)methyl]amino-3-(pyridin-4-yl)-1H-1,2,4-triazol-1-yl)butan-1-one]	< 0.1
O=C(c1ccc(Cl)cc1)n1nc(-c2ccccn2)nc1NCc1ccc(F)cc1 [Cmpd 121, 1-[(4-chlorophenyl)carbonyl]-N-[(4-fluorophenyl)methyl]-3-(pyridin-2-yl)-1H-1,2,4-triazol-5-amine]	< 0.1
CC(C)(C)C(=O)Nc1nc(C(=O)N2CCOCC2)n[nH]1 [Cmpd 169, 2,2-dimethyl-N-3-[(morpholin-4-yl)carbonyl]-1H-1,2,4-triazol-5-ylpropanamide]	> 1
CCC(=O)n1nc(-c2cccnc2)nc1NCc1cccc(C#N)c1 [Cmpd 179, 3-([1-propanoyl-3-(pyridin-3-yl)-1H-1,2,4-triazol-5-yl]aminomethyl)benzonitrile]	> 1
O=C(c1ccsc1)n1nc(-c2ccncc2)nc1NCc1ccc(F)cc1 [Cmpd 15]	< 0.1
CCOC(=O)c1cn(-c2ccccn2)nc1NCc1ccc(F)cc1 [Cmpd 46]	> 1
CC(=O)Cn1nc(-c2cccnc2)nc1NCc1ccc(F)cc1 [Cmpd 73, 1-(5-[(4-fluorophenyl)methyl]amino-3-(pyridin-3-yl)-1H-1,2,4-triazol-1-yl)propan-2-one]	> 1
CC(C)(C)C(=O)n1nc(-c2ccco2)nc1NCc1ccccc1 [Cmpd 136, 1-[5-(benzylamino)-3-(furan-2-yl)-1H-1,2,4-triazol-1-yl]-2,2-dimethylpropan-1-one]	< 0.1
COc1ccccc1C(=O)n1nc(-c2cccnc2)nc1SC [Cmpd 182, 3-1-[(2-methoxyphenyl)carbonyl]-5-(methylsulfanyl)-1H-1,2,4-triazol-3-ylpyridine]	< 0.1
O=C(O)c1cc(-c2ccccn2)nn1CCc1ccc(F)cc1 [Cmpd 52]	> 1
O=C(Oc1ccccc1Cl)n1nc(-c2cccnc2)nc1NCc1ccc(F)cc1 [Cmpd 172, 2-chlorophenyl 5-[(4-fluorophenyl)methyl]amino-3-(pyridin-3-yl)-1H-1,2,4-triazole-1-carboxylate]	> 1
